Assay results reported in ChEMBL document CHEMBL5532643, “Design and synthesis of etrasimod derivatives as potent antibacterial agents against Gram-positive bacteria” (Eur J Med Chem, 2024).
≈ marks a conversion by molar mass, not a printed value. Where “and” joins values, the source holds several entries; their conditions need not be identical. Equal entries are not always repeated.

Assays:
Format in all cases: functional
Staphylococcus aureus [1] = assay: Antibacterial activity against Staphylococcus aureus ATCC 25923 assessed as reduction in bacterial growth incubated for 18 to 20 hrs by broth microdilution assay; settings: time 18-20 hrs
Staphylococcus aureus [2] = assay: Antibacterial activity against Staphylococcus aureus ATCC 25923 assessed as inhibition of bacterial growth at 40 uM incubated for 18 to 24 hrs by broth microdilution assay relative to control; settings: time 18-24 hrs
Staphylococcus aureus [3] = assay: Antibiofilm activity against Staphylococcus aureus ATCC 25923 assessed as inhibition of biofilm viability at 100 uM incubated for 18 to 20 hrs by resazurin staining based assay; settings: time 18-20 hrs
Staphylococcus aureus [4] = assay: Antibiofilm activity against Staphylococcus aureus ATCC 25923 assessed as inhibition of biofilm biomass at 100 uM incubated for 18 to 20 hrs by crystal violet staining based assay; settings: time 18-20 hrs
Staphylococcus aureus [5] = assay: Antibacterial activity against Staphylococcus aureus ATCC 43300 assessed as reduction in bacterial growth incubated for 18 to 20 hrs by broth microdilution assay; settings: time 18-20 hrs
Staphylococcus aureus [6] = assay: Antibacterial activity against […] Staphylococcus aureus ATCC 43300 assessed as reduction in bacterial growth incubated for 18 to 20 hrs by broth microdilution assay; settings: time 18-20 hrs
[7] = test system: Staphylococcus epidermidis; assay: Antibacterial activity against Staphylococcus epidermidis RP62A assessed as reduction in bacterial growth incubated for 18 to 20 hrs by broth microdilution assay; settings: time 18-20 hrs
[8] = test system: Staphylococcus epidermidis; assay: Antibacterial activity against […] Staphylococcus epidermidis RP62A assessed as reduction in bacterial growth incubated for 18 to 20 hrs by broth microdilution assay; settings: time 18-20 hrs
Enterococcus faecalis [9] = assay: Antibacterial activity against Enterococcus faecalis ATCC 29212 assessed as reduction in bacterial growth incubated for 18 to 20 hrs by broth microdilution assay; settings: time 18-20 hrs
Enterococcus faecalis [10] = assay: Antibacterial activity against vancomycin-resistant Enterococcus faecalis ATCC 51575 assessed as reduction in bacterial growth incubated for 18 to 20 hrs by broth microdilution assay; settings: time 18-20 hrs
Enterococcus faecium = assay: Antibacterial activity against vancomycin-resistant Enterococcus faecium ATCC 700221 assessed as reduction in bacterial growth incubated for 18 to 20 hrs by broth microdilution assay; settings: time 18-20 hrs
Pseudomonas aeruginosa = assay: Antibacterial activity against Pseudomonas aeruginosa ATCC 15442 assessed as reduction in bacterial growth incubated for 18 to 20 hrs by broth microdilution assay; settings: time 18-20 hrs
Acinetobacter baumannii = assay: Antibacterial activity against Acinetobacter baumannii NCTC 13423 assessed as reduction in bacterial growth incubated for 18 to 20 hrs by broth microdilution assay; settings: time 18-20 hrs

SMILES	MIC (Staphylococcus aureus [1])	inhibition at 40 µM (Staphylococcus aureus [2]) [%]	inhibition at 100 µM (Staphylococcus aureus [3]) [%]	inhibition at 100 µM (Staphylococcus aureus [4]) [%]	MIC (Staphylococcus aureus [5]) [µM]	MIC (Staphylococcus aureus [6]) [µM]	MIC [7] [µM]	MIC [8] [µM]	MIC (Enterococcus faecalis [9]) [µM]	MIC (Enterococcus faecalis [10]) [µM]	MIC (Enterococcus faecium) [µM]	MIC (Pseudomonas aeruginosa) [µM]	MIC (Acinetobacter baumannii) [µM]
O=C(O)Cc1c[nH]c2ccc(OCc3ccc(C4CCCCC4)c(C(F)(F)F)c3)cc12	10 µM and 4.3 µg/mL	≤ 90	> 90	> 90	10 (≈ 4.31 µg/mL)	10 (≈ 4.31 µg/mL)	10 (≈ 4.31 µg/mL)	10 (≈ 4.31 µg/mL)	20 (≈ 8.63 µg/mL)	20 (≈ 8.63 µg/mL)	20 (≈ 8.63 µg/mL)	> 200	> 200
O=C(O)CC1CCc2c1[nH]c1ccc(OCc3ccc(-c4ccc(Cl)s4)c(C(F)(F)F)c3)cc21 (stereo unspecified)	5 µM and 2.5 µg/mL	≤ 90	> 90	> 90									
Cc1nc(-c2ccc(C(F)(F)F)cc2)sc1COc1ccc2[nH]c3c(c2c1)CCC3CC(=O)O (stereo unspecified)	20 µM and 9.7 µg/mL	≤ 90	> 90	> 90									
O=C(O)CC1CCc2c1[nH]c1ccc(OCc3ccc(OCC4CCCC4)c(C(F)(F)F)c3)cc21 (stereo unspecified)	10 µM and 4.9 µg/mL	≤ 90	> 90	> 90									
O=C(O)CC1CCc2c1[nH]c1ccc(OCc3ccc(C4CCCC4)c(C(F)(F)F)c3)cc21 (racemic)	5 µM and 2.3 µg/mL	≤ 90	> 90	> 90									
O=C(O)Cn1ccc2cc(OCc3ccc(C4CCCC4)c(C(F)(F)F)c3)ccc21	20 µM and 8.3 µg/mL	≤ 90	> 90	> 90									
O=C(O)c1ccc(OCc2ccc(C3CCCC3)c(C(F)(F)F)c2)cn1	10 µM and 3.7 µg/mL	≤ 90	> 90	> 90	5 (≈ 1.83 µg/mL)	5 (≈ 1.83 µg/mL)	5 (≈ 1.83 µg/mL)	10 (≈ 3.65 µg/mL)	10 (≈ 3.65 µg/mL)	20 (≈ 7.31 µg/mL)	20 (≈ 7.31 µg/mL)	> 200	> 200
CS(=O)(=O)NC(=O)CC1CCc2c1[nH]c1ccc(OCc3ccc(C4CCCC4)c(C(F)(F)F)c3)cc21 (stereo unspecified)	5 µM and 2.7 µg/mL	≤ 90	> 90	> 90	5 (≈ 2.67 µg/mL)	5 (≈ 2.67 µg/mL)	10 (≈ 5.35 µg/mL)	10 (≈ 5.35 µg/mL)	5 (≈ 2.67 µg/mL)	5 (≈ 2.67 µg/mL)	10 (≈ 5.35 µg/mL)	> 200	> 200
N#Cc1cc(COc2ccc3[nH]c4c(c3c2)CCC4CC(=O)O)ccc1C1CCCC1 (stereo unspecified)	40 µM and 16.6 µg/mL	≤ 90	> 90	> 90									
O=C(O)CC1CCc2c1[nH]c1ccc(OCc3cccc(C(F)(F)F)c3)cc21 (stereo unspecified)	> 40 µM and > 15.6 µg/mL	≤ 90	> 90	> 90									
CCCCc1ccc(COc2ccc3[nH]c4c(c3c2)CCC4CC(=O)O)cc1C(F)(F)F (stereo unspecified)	10 µM and 4.5 µg/mL	≤ 90	> 90	> 90									
O=C(O)c1cc2cc(OCc3ccc(C4CCCC4)c(C(F)(F)F)c3)ccc2[nH]1	5 µM and 2 µg/mL	≤ 90	> 90	> 90	5 (≈ 2.02 µg/mL)	5 (≈ 2.02 µg/mL)	5 (≈ 2.02 µg/mL)	2.5 (≈ 1.01 µg/mL)	10 (≈ 4.03 µg/mL)	10 (≈ 4.03 µg/mL)	10 (≈ 4.03 µg/mL)	> 200	> 200
O=C(O)CC1CCc2c1[nH]c1ccc(OCc3ccc(C4CCCC4)cc3)cc21 (stereo unspecified)	20 µM and 7.8 µg/mL	≤ 90	> 90	> 90									
O=C(O)Cc1c[nH]c2ccc(OCc3ccc(C4CCCC4)c(C(F)(F)F)c3)cc12	20 µM and 8.3 µg/mL	≤ 90	> 90	> 90									
O=C(O)CC1CCc2c1[nH]c1ccc(OCc3noc(-c4ccc(C(F)(F)F)cc4)n3)cc21 (stereo unspecified)	> 40 µM and > 18.3 µg/mL	≤ 90	> 90	> 90									
O=C(O)CC1CCc2c1[nH]c1ccc(OCc3ccc(C4CCCCC4)c(C(F)(F)F)c3)cc21 (stereo unspecified)	5 µM and 2.4 µg/mL	≤ 90	> 90	> 90									
CC(C)Cc1ccc(COc2ccc3[nH]c4c(c3c2)CCC4CC(=O)O)cc1C(F)(F)F (stereo unspecified)	10 µM and 4.5 µg/mL	≤ 90	> 90	> 90									
O=C(O)CC1CCc2c1[nH]c1ccc(OCc3ccc(-c4cccs4)c(C(F)(F)F)c3)cc21 (stereo unspecified)	10 µM and 4.7 µg/mL	≤ 90	> 90	> 90									
O=C(O)CC1CCc2c1[nH]c1ccc(OCc3ccc(C4CCCC4)c(F)c3)cc21 (stereo unspecified)	10 µM and 4.1 µg/mL	≤ 90	> 90	> 90									
O=C(O)Cc1ccc(OCc2ccc(C3CCCC3)c(C(F)(F)F)c2)cn1	> 40 µM and > 15.2 µg/mL	≤ 90	> 90	> 90									
O=C(O)CC1CCc2c1[nH]c1ccc(OCc3ccc(C4CCCC4)c(OC(F)(F)F)c3)cc21 (stereo unspecified)	5 µM and 2.4 µg/mL	≤ 90	> 90	> 90									
O=C(O)CC1CCc2c1[nH]c1ccc(OCc3ccc(N4CCOCC4)c(C(F)(F)F)c3)cc21 (stereo unspecified)	> 40 µM and > 19 µg/mL	≤ 90	> 90	> 90									
FC(F)(F)c1cc(COc2ccc3[nH]ccc3c2)ccc1C1CCCC1	> 40 µM and > 14.4 µg/mL	≤ 90	> 90	> 90									
CC(=O)NC[C@H]1CN(c2ccc(N3CCOCC3)c(F)c2)C(=O)O1 [LINEZOLID]									5 (≈ 1.69 µg/mL)	5 (≈ 1.69 µg/mL)	5 (≈ 1.69 µg/mL)		
O=C(O)CCc1c[nH]c2ccc(OCc3ccc(C4CCCC4)c(C(F)(F)F)c3)cc12	20 µM and 8.6 µg/mL	≤ 90	> 90	> 90									
CCCCCCCCOc1ccc2[nH]c3c(c2c1)CCC3CC(=O)O (stereo unspecified)	40 µM and 13.7 µg/mL	≤ 90	> 90	> 90									
CCOC(=O)CC1CCc2c1[nH]c1ccc(OCc3ccc(C4CCCC4)c(C(F)(F)F)c3)cc21 (stereo unspecified)	> 40 µM and > 19.4 µg/mL	≤ 90	> 90	> 90									
NC(=O)CC1CCc2c1[nH]c1ccc(OCc3ccc(C4CCCC4)c(C(F)(F)F)c3)cc21 (stereo unspecified)	20 µM and 9.1 µg/mL	≤ 90	> 90	> 90									
Cc1[nH]c2ccc(OCc3ccc(C4CCCC4)c(C(F)(F)F)c3)cc2c1CC(=O)O	20 µM and 8.6 µg/mL	≤ 90	> 90	> 90									
